Experimental data as given in patent US6500936B2, “Pluraflavins and derivatives thereof, process for their preparation and use thereof” (priority 2000, dated 2002).
Several values for one entry are separate records, joined by “and”; a condition that tells them apart may be missing. Equal entries are not always repeated. Where two headings read alike, the source gives them in different places.

Experiments:
[1] = Chemical stability by medium / pH
[2] = Solubility (appearance description)
Breast tumor cell line = test: MTT antiproliferation assay, breast tumor cells; format: cell-based
Text: (§1) MTT, a water soluble tetrazolium salt, is converted to an insoluble purple formazan when dissolved by cleavage of the tetrazolium ring by dehydrogenase enzymes in active mitochondria. […] This method was used to quantitate proliferation in order to determine activity of potential chemotherapeutic compounds.
(§2) All cells were maintained in RPMI 1640 (Life Technologies, Gaithersburg, Mdi) containing 10% heat-inactivated Fetal Bovine Serum, penicillin /streptomycin and supplemented with L-glutamine.
(§3) Cells were plated in 96-well tissue culture plates at the following densities:
(§4) Cells were allowed to adhere overnight at 37° C., 5% CO2.
(§5) The cells were washed with fresh media and the compounds added to the cells in a final volume of 100 μl. The cells plus compound were allowed to incubate at 37° C., 5% CO2 for approximately 72 hours.
(§6) At the desired time point, 25 μl of MTT (10 mg/ml in HBSS) were added to each well. Plates were incubated at 37° C. for 2-4 hours. MTT and media were removed and 200 μl DMSO were added per well. Readings were taken at 570 nm.

Lung tumor cell line = test: MTT antiproliferation assay, lung tumor cells; format: cell-based
Text: as §1, §2, §3, §4, §5, §6

Colon tumor cell line = test: MTT antiproliferation assay, colon tumor cells; format: cell-based
Text: as §1, §2, §3, §4, §5, §6

Prostate tumor cell line = test: MTT antiproliferation assay, prostate tumor cells; format: cell-based
Text: as §1, §2, §3, §4, §5, §6

leukemia cells = test: Soft agar assay against leukemia cells; format: cell-based
[3] = test system: rat hepatoma cells ATCC CRL-1548; test: Cytostatic activity on rat hepatoma cells (Cell Titer 96 Aqueous); format: cell-based; conditions: read-out: IC50 (cytostatic effect)
Method: (a) To determine the cytostatic activity, rat hepatoma cells were used which were obtained from the strain collection American Type Culture Collection under the number ATCC CRL-1548, Jo No.223 and 228 The strain was kept in the “MEM (EAGLE) with Glutamax” medium [GIBCO BRL No.4109-028] with 10% fetal calf serum [GIBCO BRL No. 10270-106] and 10 μl of penicillin-streptomycin [GIBCO BRL No. 15140-114]/ml. 96-well microtiterplates [Greiner, No. 15140-114] were used. Each well was initially charged with 140 μl of culturing nutrient solution and in each case inoculated with 215,000 cells. The plates were then incubated at 37° C. and 5% CO2 for 20-24 hours. A dilution series of pluraflavins with concentrations of 100, 50, 25, 12.5, 6.25, 3.125, 1.5625, 0.7813, 0.3906, 0.195, 0.094, 0.047 and 0 μM, which had been prepared beforehand, was then pipetted in the corresponding order. After a further incubation time of 22 hours at 37° C. in an atmosphere of 5% CO2, the liquid medium was then aspirated. The cells that remained were stained with 100 μl of RPMI 1640 [GIBCO BRL No. 32404-014]/well and 20 μl of Cell Titer 96 Aqueous [PROMEGA No. G5430]/well. Light absorption at 590 nm was measured directly after addition and after 2 hours of incubation, as above. The cytostatic effect was calculated from the change in light absorption.

IC50 (Breast tumor cell line; Breast cells, MTT, approximately 72 hours, read-out: IC50) | IC50 (Lung tumor cell line; Lung cells, MTT, approximately 72 hours, read-out: IC50) | IC50 (Colon tumor cell line; Colon cells, MTT, approximately 72 hours, read-out: IC50) | IC50 (Prostate tumor cell line; Prostate cells, MTT, approximately 72 hours, read-out: IC50) | IC50 (leukemia cells; soft agar assay, leukemia cells, read-out: IC50) | SMILES | stability in the alkaline range [1] | stability in neutral and mildly acidic medium [1] | stability in the strongly acidic range [1] | solubility in polar organic solvents [2] | solubility in water [2] | IC50 ([3]; rat hepatoma cells, 22 hours incubation) | IC50 (Breast tumor cell line; 72 h) | IC50 (Lung tumor cell line; 72 h) | IC50 (Colon tumor cell line; 72 h) | IC50 (Prostate tumor cell line; 72 h) | IC50 (leukemia cells) | IC50 ([3]; Rattus norvegicus, 22 h)
– | – | – | – | – | CC1OC(OC2C(C)OC(c3ccc4c(c3O)C(=O)c3c(cc(C(=O)O)c5c(=O)cc(C(C)(O)C(C)O)oc35)C4=O)CC2N(C)C)CC(O)C1O (stereo not drawn) [pluraflavin E] | unstable | stable | unstable | soluble | only sparingly soluble | – | – | – | – | – | – | –
0.09 µM | 0.09 µM | 0.03 µM | 0.08 µM | 0.5 µM and 0.6 µM | CN1CC[C@H](c2c(O)cc(O)c3c(=O)cc(-c4ccccc4Cl)oc23)[C@H](O)C1 [flavopiridol, reference compound] | – | – | – | – | – | – | – | – | – | – | – | –
– | – | – | – | – | CC1OC(OC2C(C)OC(c3ccc4c(c3O)C(=O)c3c(cc(COC5CC(C)(N)C(O)C(C)O5)c5c(=O)cc(C(C)(O)C(C)O)oc35)C4=O)CC2N(C)C)CC(O)C1O (stereo not drawn) [pluraflavin B] | unstable | stable | – | soluble | only sparingly soluble | < 0.05 µM | – | – | – | – | – | –
– | – | – | – | – | CC1OC(OC2C(C)OC(c3ccc4c(c3O)C(=O)c3c(cc(COC5CC(C)(N)C(O)C(C)O5)c5c(=O)cc(C6(C)OC6C)oc35)C4=O)CC2N(C)C)CC(O)C1O (stereo not drawn) [pluraflavin A] | unstable | stable | unstable | – | – | – | < 0.023 µM | 0.003 µM | 0.00035 µM | 0.01 µM | 0.06 µM | < 0.05 µM
